Reference: article PMC4235344, “A single-component multidrug transporter of the major facilitator superfamily is part of a network that protects E scherichia coli from bile salt stress” (Molecular Microbiology, 2014)

Molecular target: T1, MdtM (Escherichia coli, UniProt P39386)
T1 construct: full-length wild-type, pBAD/Myc-His A vector (pMdtM), homologously overexpressed in E. coli LMG194, purified in DDM
Test: intrinsic Trp fluorescence quenching
Format: binding

T1 sequence (P39386 whole entry): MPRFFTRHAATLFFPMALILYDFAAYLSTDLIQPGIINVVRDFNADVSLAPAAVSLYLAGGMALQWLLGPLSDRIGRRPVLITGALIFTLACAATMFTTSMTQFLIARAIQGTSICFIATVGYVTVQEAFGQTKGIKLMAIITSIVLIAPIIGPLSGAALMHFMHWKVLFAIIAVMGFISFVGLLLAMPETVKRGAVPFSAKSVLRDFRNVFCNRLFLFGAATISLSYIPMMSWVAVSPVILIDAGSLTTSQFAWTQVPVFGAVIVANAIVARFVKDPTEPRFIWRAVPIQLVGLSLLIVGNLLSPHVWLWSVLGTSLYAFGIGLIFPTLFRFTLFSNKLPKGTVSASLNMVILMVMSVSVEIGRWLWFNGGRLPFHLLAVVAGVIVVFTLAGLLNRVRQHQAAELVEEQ

Row | SMILES | Kd [µM]
1 | C[C@H](CCC(=O)O)[C@H]1CC[C@H]2[C@@H]3[C@H](O)C[C@@H]4C[C@H](O)CC[C@]4(C)[C@H]3C[C@H](O)[C@]12C [cholate] | 24 ± 6
2 | C[C@H](CCC(=O)O)[C@H]1CC[C@H]2[C@@H]3CC[C@@H]4C[C@H](O)CC[C@]4(C)[C@H]3C[C@H](O)[C@]12C [deoxycholate] | 176 ± 20
